From US8304447B2, “2-acylaminopropoanol-type glucosylceramide synthase inhibitors” (Genzyme Corporation, priority 2007, dated 2012)
Like-named read-outs stand apart in the source and are kept apart here.

System: GM3
Assay: GM3 Elisa assay
Format: cell-based
Conditions: B16-FO cells, read-out: IC50_uM_Mean
How it was run: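 Cellular GM3 ELISA: fixed cells probed with monoclonal anti-GM3 (NeuAc), HRP-conjugated anti-IgM and fluorogenic Quantablu substrate, read at Ex 325/Em 420. Cells were B16-FO, treated 2 days after a 6 h attachment on collagen-coated wells.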

[1] = 48 h, Table 2, 2 days incubation
[2] = 48 h, Table 1, 2 days incubation

| Compound | IC50 (Table 3 (IC 50 Values)) [nM] | further results |
| --- | --- | --- |
| O=C(CCC(=O)c1ccc(C(F)(F)F)cc1)N[C@H](CN1CCCC1)[C@H](O)c1ccc2c(c1)OCCO2 [Compound 176, N-((1R,2R)-1-(2,3-dihydrobenzo[β][1,4]dioxin-6-yl)-1-hydroxy-3-(pyrrolidin-1-yl)propan-2-yl)-4-oxo-4-(4-(trifluoromethyl)phenyl)butanamide (2S,3S)-2,3-dihydroxysuccinate] |  | IC50 (Table 1, 2 days incubation): ≤ 100 nM |
| COc1ccc(C(=O)CCCCC(=O)N[C@H](CN2CCCC2)[C@H](O)c2ccc(OCC3CCC3)cc2)cc1 [Compound 421] | ≤ 100 |  |
| COCC1CCCN1C[C@@H](NC(=O)CCOc1ccc(OC)cc1)[C@H](O)c1ccc2c(c1)OCCO2 (some centres unmarked) [Compound 538] | 3000 to 10000 |  |
| COc1ccc(C(=O)CCCC(=O)N[C@H](CN2CC[C@H](O)C2)[C@H](O)c2ccc(OC(C)C)cc2)cc1 [Compound 732] | 100 to 1000 |  |
| COc1ccc(OCCC(=O)N[C@H](CN2CC[C@H](O)C2)[C@H](O)c2ccc3c(c2)OCCO3)cc1 [Compound 514] | 100 to 1000 |  |
| CC(C)Oc1ccc(C(=O)CCCC(=O)N[C@H](CN2CCCC2)[C@H](O)c2ccc3c(c2)OCCO3)cc1 [Compound 284, N-((1R,2R)-1-(2,3-dihydrobenzo[β][1,4]dioxin-6-yl)-1-hydroxy-3-(pyrrolidin-1-yl)propan-2-yl)-5-(4-isopropoxyphenyl)-5-oxopentanamide] |  | IC50 [1]: ≤ 100 nM |
| COc1ccc(C(=O)CCCCC(=O)N[C@H](CN2CCCC2)[C@H](O)c2ccc(C)c(F)c2)cc1 [Compound 351] | 100 to 1000 |  |
| COc1ccc(C(=O)CCCC(=O)N[C@H](CN2CCCC2)[C@H](O)c2ccccc2OC)cc1 [Compound 701] | 1000 to 3000 |  |
| CCCCCCCC(=O)N[C@H](CN1CCCC1)[C@H](O)c1ccc(-c2ccccc2)cc1 [Compound 697] | 100 to 1000 |  |
| COc1ccc(CCC(=O)N[C@H](CN2CCCC2)[C@H](O)c2ccc3c(c2)OCCO3)cc1Cl [Compound 92, 3-(3-chloro-4-methoxyphenyl)-N-((1R,2R)-1-(2,3-dihydrobenzo[β][1,4]dioxin-6-yl)-1-hydroxy-3-(pyrrolidin-1-yl)propan-2-yl)propanamide] |  | IC50 [2]: ≤ 100 nM |
| COc1ccc(C(=O)CCCCC(=O)N[C@H](CN2CC[C@H](O)C2)[C@H](O)c2ccc(OC(C)C)cc2)cc1 [Compound 375] | 100 to 1000 |  |
| COc1ccc(OCCC(=O)N(Cc2ccccn2)[C@H](CN2CCCC2)[C@H](O)c2ccc(O)cc2)cc1 [Compound 716] | 3000 to 10000 |  |
| COc1ccc([C@@H](O)[C@@H](CN2CCCC2)NC(=O)Cc2ccc(OC(F)(F)F)cc2)cc1Cl [Compound 710] | ≤ 100 |  |
| CCCCCCCCCCCCCCCC(=O)N[C@H](CNC1CCCC1)[C@H](O)c1ccc2c(c1)OCCO2 [Compound 681] | 1000 to 3000 |  |
| COc1ccc(CNC(=O)N(C)[C@H](CN2CCCC2)[C@H](O)c2ccc3c(c2)OCCO3)cc1 [Compound 256] |  | IC50 [1]: 100 to 1000 nM |
| COc1ccc(C(=O)CCCCCC(=O)N[C@H](CN2CCCC2)[C@H](O)c2ccc3c(c2)OC(F)(F)O3)cc1 [Compound 409] | 100 to 1000 |  |
| CCCCCCC1=CC([C@H](CN2CCCC2)[C@H](O)c2ccc3c(c2)OCCO3)NN1 (some centres unmarked) [Compound 591] | 3000 to 10000 |  |
| COCCOc1ccc(C(=O)CCCC(=O)N[C@H](CN2CCCC2)[C@H](O)c2ccc3c(c2)OCCO3)cc1 [Compound 449] | ≤ 100 |  |
| COc1ccc(C(=O)CCCCC(=O)N[C@H](CN2CCCC2)[C@H](O)c2ccc(OCCOc3ccc(C#N)cc3)cc2)cc1 [Compound 364] | ≤ 100 |  |

| Compound | IC50 (Table 3 (IC 50 Values)) [nM] | further results |
| --- | --- | --- |
| COc1ccc(C(=O)CCCCCC(=O)N[C@H](CN2CC(F)(F)C2)[C@H](O)c2ccc3c(c2)OCCO3)cc1 [Compound 618] | 3000 to 10000 |  |
| COc1ccc(OCCC(=O)N[C@H](CN2CCCC2)[C@@H](O)c2ccc3c(c2)OCCO3)cc1 [Compound 676] | 3000 to 10000 |  |
| CCCCCCCCCCCCCCCC(=O)N[C@H](CNC(C)C)[C@H](O)c1ccc2c(c1)OCCO2 [Compound 680] | ≤ 100 |  |
| COc1ccc(C(=O)CCCCC(=O)N[C@H](CN2CCCC2)[C@H](O)c2ccc(OC)c(C)c2)cc1 [Compound 387] | 100 to 1000 |  |
| O=C(CCC12CC3CC(CC(C3)C1)C2)N[C@H](CN1CCCC1)[C@H](O)c1ccc2c(c1)OCCO2 [Compound 637] | 100 to 1000 |  |
| CCCCCCCC(=O)N[C@H](CN1CCCC1(C)C)[C@H](O)c1ccc2c(c1)OCCO2 [Compound 553] | 3000 to 10000 |  |
| COc1ccc([C@@H](O)[C@@H](CO)NC(=O)OCc2ccccc2)cc1F [Compound 482] | 3000 to 10000 |  |
| COc1ccc(C(=O)CCCC(=O)N[C@H](CN2CCCC2)[C@H](O)c2ccc3c(c2)OC(F)(F)O3)cc1 [Compound 405] | 1000 to 3000 |  |
| COc1cccc(-c2ccc(CC(=O)N[C@H](CN3CCCC3)[C@H](O)c3ccc4c(c3)OCCO4)cc2)c1 [Compound 63, N-((1R,2R)-1-(2,3-dihydrobenzo[β][1,4]dioxin-6-yl)-1-hydroxy-3-(pyrrolidin-1-yl)propan-2-yl)-2-(3 methoxybiphenyl-4-yl)acetamide] |  | IC50 [2]: ≤ 100 nM |
| O=C(Cc1ccc(-c2ccccc2)cc1)N[C@H](CN1CCCC1)[C@H](O)c1ccc2c(c1)OCCO2 [Compound 23, 2-(biphenyl-4-yl)-N-((R,2R)-1-(2,3-dihydrobenzo[β][1,4]dioxin-6-yl)-1-hydroxy-3-(pyrrolidin-1-yl)propan-2-yl)acetamide] |  | IC50 [2]: ≤ 100 nM |
| COc1ccc(C(=O)CCCCCC(=O)N[C@H](CN2CC[C@H](O)C2)[C@H](O)c2ccc(OCCCCF)cc2)cc1 [Compound 497] | ≤ 100 |  |
| COCCOc1ccc([C@@H](O)[C@@H](CN2CCCC2)N(CCOC)C(=O)CCCCC(=O)c2ccc(OC)cc2)cc1 [Compound 423] | 1000 to 3000 |  |
| CCCCCCCC(=O)N[C@H](CN1CCC(CN2CCCC2)C1)[C@H](O)c1ccc2c(c1)OCCO2 (some centres unmarked) [Compound 313] |  | IC50 [1]: ≤ 100 nM |
| O=C(CC(F)(F)F)N[C@H](CN1CCCC1)[C@H](O)c1ccc2c(c1)OCCO2 [Compound 624] | 3000 to 10000 |  |
| COc1ccc(C(=O)CCCCC(=O)N[C@H](CN2CCCC2)[C@H](O)c2ccc3c(c2)OCCO3)cc1 [Compound 141, N-((1R,2R)-1-(2,3-dihydrobenzo[β][1,4]dioxin-6-yl)-1-hydroxy-3-(pyrrolidin-1-yl)propan-2-yl)-6-(4-methoxyphenyl)-6-oxohexanamide] |  | IC50 [2]: ≤ 100 nM |
| O=C(N[C@H](CN1CCCC1)[C@H](O)c1ccc2c(c1)OCCO2)C(=O)c1ccccc1 [Compound 31, N-((1R,2R)-1-(2,3-dihydrobenzoall [1,4]dioxin-6-yl)-1-hydroxy-3-(pyrrolidin-1-yl)propan-2-yl)-2-oxo-2-phenylacetamide] |  | IC50 [2]: 100 to 1000 nM |
| COc1ccc(OCCCC(=O)N[C@H](CN2CC[C@H](O)C2)[C@H](O)c2ccc(OCCCCF)cc2)cc1 [Compound 501] | ≤ 100 |  |
| COc1ccc(C(=O)CCC(=O)N[C@H](CN2CCCC2)[C@H](O)c2ccc3c(c2)OCCO3)cc1 [Compound 154, N-((1R,2R)-1-(2,3-dihydrobenzo[b][1,4]dioxin-6-yl)-1-hydroxy-3-(pyrrolidin-1-yl)propan-2-yl)-4-(4-methoxyphenyl)-4-oxobutanamide] |  | IC50 [2]: 100 to 1000 nM |
| CCCCOc1ccc(C(O)[C@@H](CN2CC[C@@H](F)C2)NC(=O)CCCCCCCOC)cc1 (some centres unmarked) [Compound 584] | 100 to 1000 |  |

| Compound | IC50 (Table 3 (IC 50 Values)) [nM] | further results |
| --- | --- | --- |
| CCCCCCCC(=O)N[C@H](CN1CCCC1)[C@H](O)c1ccc(OC)cc1 [Compound 320, Octanoic acid [2-hydroxy-2(4-methoxy-phenyl)-1-Pyrrolidin1-ylmethyl-ethyl]-amide] |  | IC50 [1]: ≤ 100 nM |
| CCCCCCOc1ccc([C@@H](O)[C@@H](CN2CCCC2)NC(=O)CCCC(=O)c2ccc(OCCOC)cc2)cc1 [Compound 442] | ≤ 100 |  |
| CCCCCCCC(=O)N[C@H](CN1CCCC1)[C@H](O)c1cc(OC)c(OC)c(OC)c1 [Compound 669] | 3000 to 10000 |  |
| CCCCCCCC(=O)N[C@H](CN1CCC[C@H]1C(F)(F)F)[C@H](O)c1ccc2c(c1)OCCO2 [Compound 543] | 3000 to 10000 |  |
| CCCNC[C@@H](NC(=O)CCCCCC(=O)c1ccc(OC)cc1)C(O)c1ccc2c(c1)OCCO2 (some centres unmarked) [Compound 467] | 100 to 1000 |  |
| CC(C)Oc1ccc([C@@H](O)[C@@H](CN2CC[C@@H](F)C2)NC(=O)Cc2ccc(-c3ccc(Cl)cc3)cc2)cc1 [Compound 446] | ≤ 100 |  |
| CCCCCCOc1ccc([C@@H](O)[C@@H](CN2CC[C@@H](F)C2)NC(=O)CCCOc2ccc(OC)cc2)cc1 [Compound 730] | ≤ 100 |  |
| COc1ccc(C(=O)CCCCCC(=O)N[C@H](CN2CCCC2)[C@H](O)c2ccc(C(F)(F)F)cc2)cc1 [Compound 484] | 1000 to 3000 |  |
| COc1ccc(C(=O)CCCCC(=O)N[C@H](CN2CCCC2)[C@H](O)c2ccc(OCC3CCCCC3)cc2)cc1 [Compound 420] | ≤ 100 |  |
| COc1ccc(C(=O)CCCCCC(=O)N[C@H](CNCC(C)(C)C)[C@H](O)c2ccc3c(c2)OCCO3)cc1 [Compound 466] | 3000 to 10000 |  |
| CCCCCCCC(=O)N[C@H](CN1CC[C@H](O)C1)[C@H](O)c1ccc2c(c1)OCCO2 [Compound 515] | ≤ 100 |  |
| CCCCOc1ccc([C@@H](O)[C@@H](CN2CC[C@H](O)C2)NC(=O)CCCCC(=O)C2CCCCC2)cc1 [Compound 587] | 100 to 1000 |  |
| COCCOCCOc1ccc([C@@H](O)[C@@H](CN2CCCC2)NC(=O)CCCCC(=O)c2ccc(OC)cc2)cc1 [Compound 415] | 100 to 1000 |  |
| O=C(N[C@H](CN1CCCC1)[C@H](O)c1ccc2c(c1)OCCO2)C1CCC(C(F)(F)F)CC1 (some centres unmarked) [Compound 616] | 3000 to 10000 |  |
| COc1ccc(C(=O)CCCCCC(=O)N[C@H](CN(CC2CC2)CC2CC2)[C@H](O)c2ccc3c(c2)OCCO3)cc1 [Compound 464] | 3000 to 10000 |  |
| O=C(CCCCC(=O)C1CCOCC1)N[C@H](CN1CCCC1)[C@H](O)c1ccc2c(c1)OCCO2 [Compound 556] | 3000 to 10000 |  |
| CC(=O)CCCCCC(=O)N[C@H](CN1CCCC1)[C@H](O)c1ccc(OC(F)(F)F)cc1 [Compound 665] | 3000 to 10000 |  |
| O=C(CCCCCC(F)(F)C1CC1)N[C@H](CN1CCCC1)[C@H](O)c1ccc2c(c1)OCCO2 [Compound 630] | 100 to 1000 |  |
